Assay results published in patent US20050215551A1, “1-[2H-1-benzopyran-2-one-8-yl]- piperazine derivatives for the treatment of movement disorders” (SOLVAY PHARMACEUTICALS B.V., priority 2004, published 2005).
Marks after values point to notes of the source that are not given here.

Assays:
δ-opiate = δ-opiate (Rattus norvegicus, UniProt P33533); assay: Receptor binding δ-opiate; settings: radioligand [3H]-DPDPE, read-out: Ki(nM) Compound 1
Protocol: (§1) Receptor binding data were obtained by CEREP (128, rue Danton, 92500 Rueil-Malmaison, France) or at Solvay Pharmaceuticals B.V., using well documented standard procedures. Affinity for 5-HT1A receptors for instance, was determined by testing the ability of the compounds of the invention to displace [^3H]-2-(di-n-propylamino)-8-hydroxytetralin ([^3H]-8-OH-DPAT) from its specific binding sites in rat frontal cortex homogenates. This test is based on the method described by Gozlan et al. (Nature, 305, (1983), pages 140-142).
(§2) The binding data collected in the table below were either obtained by CEREP (128, rue Danton, 92500 Rueil-Malmaison, France) or at Solvay Pharmaceuticals B.V., using well documented standard procedures.

[1] = system: rats with unilateral 6-OHDA lesions; assay: Turning experiments in animals with unilateral 6-hydroxydopamine lesions of the substantia nigra compacta; format: in vivo
Protocol: Male rats (Wistar, Harlan, Netherlands; 400-500 g at time of experiment) are housed in a temperature (20-21±2° C.) and humidity controlled environment and receive water ad libitum except during experimental sessions. Food is restricted to approximately 15 g per rat per day. A 12-hour light-dark cycle (lights on 07.00-19.00 hour) is used.
Unilateral 6-hydroxydopamine (6-OH DA) lesions of the substantia nigra zona compacta are performed using a stereotaxic procedure. One hour prior to surgery, desmethyl-imipramine (20 mg/kg, i.p.) is administered to protect noradrenergic neurons. Rats are anaesthetized with a 3% halothane+0.8 l/min N2O+0.8 l/min O2-gas mixture at 1013 mbar. During surgery the gas mixture is adjusted to 1.75-2% halothane, 0.6 l/min N2O and 0.6 l/min O2. The incisor bar of the stereotaxic instrument (Kopf, Calif., USA) iss set at −3.3 mm, a burr hole was drilled over the substantia nigra pars compacta and 3 μl of a 6-OHDA solution (3.33 mg/ml) is injected (flow rate=0.75 μl/min; the needle is left in place for 4 minutes prior to withdrawal). Coordinates for this procedure are: anterior posterior +3.2 mm from the interaural line; medial/lateral +1.8 mm from the midline and ventral −8.2 from the skull surface. Animals are allowed to recover for approximately 2 weeks prior to testing. Good turning rats are defined as those which elicited at least 20 contralateral turns following amphetamine (2.5 mg/kg sc) in the 5 min time epoch beginning 25 min after administration and a mean of at least 20 contralateral turns recorded over a 30 min period after administration of apomorphine (0.25 mg/kg s.c.). Regular testing with apomorphine (0.1 or 0.25 mg/kg s.c.) is carried out to ensure the reliability of the animals in this procedure.
Eight commercially available (TSE systems Bad Homburg, Germany) ‘rotameter’ units (transparent plastic bowls; 57×55×52 cm) are used for testing. The rats are harnessed and tethered to a rotation sensor interfaced to an IBM compatible personal computer (using the TSE Rotameter Software v. 1.11, TSE systems Bad Homburg, Germany) which registers clockwise or counterclockwise movement. An internal software rotation filter of 10 is used.
Following statistical randomization of the treatment groups rats are pretreated with compounds of the invention (0.1-3 mg/kg p.o.) or vehicle (2 ml/kg) and placed in the rotameters the contralateral rotational behaviour is then measured. In further studies the effects of L-DOPA (1-10 mg/kg p.o.) are assessed on contralateral rotations. The peripheral decarboxylase inhibitor benserazide (30 mg/kg i.p.) can be used. In combination studies a range of L-DOPA (1-10) doses and doses of compounds of the invention (0.1-3 mg/kg p.o.) can be combined.

DBA/2 mice = assay: Interaction studies in DBA/2 mice: Compound 1 + vehicle, sumatriptan or SB 258741 (audiogenic seizures); format: in vivo; settings: for Percentage of animal response, Clonic seizures / Percentage of animal response, Tonic extension: 30 min
Protocol: The experiments are performed according to the method previously described by De Sarro et al. (1984), Eur. J. Pharmacol., 104, 55-60. Compounds of the invention or vehicle (controls) are given intraperitoneally (i.p.) and orally (p.o.) as freshly sonicated solutions in methylcellulose 1%. For the i.p. treatment compounds of the invention are given at doses of 0.1, 0.3, 3, 10, 15, 20 and 30 mg/kg; pretreatment time at 30 and 60 min., For oral treatment, all animals are pretreated either at 30 or 60 min using the compounds of the invention at doses of 0.1, 0.3, 3, 6 and 10 mg/kg p.o. At least 10 mice per dose are used. After pretreatment time, each mouse is placed under a hemispheric perspex dome (58 cm in diameter) and 1 min is allowed for habituation and assessment of locomotor activity. Animals are challenged with a 12-16 kHz sinusoidal tone at 109 dB. Seizure response is assessed by two independent observers. The sound evoked behaviour is coded using the following scale: 0=no response, 1=wild running, 2=clonus, 3=tonic flexor and/or extensor; 4=respiratory arrest, on the basis of the concordant opinion of the observers. […] The maximum response is recorded for each animal. Rectal temperature is recorded immediately prior to auditory testing using an Elektrolaboratoriet thermometer type T.E.3. Behavioral changes are observed during the period between drug administration and auditory testing. In these experiments separate vehicle-treated and drug-treated groups are used at each pretreatment time (15 min-60 min). Percentage of mice showing wild running, clonic or tonic phase and the duration of anticonvulsant activity are compared to control group and statistically analyzed.

Interleukine-6 = Interleukine-6 (Homo sapiens, UniProt P08887); assay: Receptor binding Interleukine-6; settings: radioligand [125I]-interleukine-6, read-out: Ki(nM) Compound 1
Sequence of Interleukine-6 (P08887 20-468): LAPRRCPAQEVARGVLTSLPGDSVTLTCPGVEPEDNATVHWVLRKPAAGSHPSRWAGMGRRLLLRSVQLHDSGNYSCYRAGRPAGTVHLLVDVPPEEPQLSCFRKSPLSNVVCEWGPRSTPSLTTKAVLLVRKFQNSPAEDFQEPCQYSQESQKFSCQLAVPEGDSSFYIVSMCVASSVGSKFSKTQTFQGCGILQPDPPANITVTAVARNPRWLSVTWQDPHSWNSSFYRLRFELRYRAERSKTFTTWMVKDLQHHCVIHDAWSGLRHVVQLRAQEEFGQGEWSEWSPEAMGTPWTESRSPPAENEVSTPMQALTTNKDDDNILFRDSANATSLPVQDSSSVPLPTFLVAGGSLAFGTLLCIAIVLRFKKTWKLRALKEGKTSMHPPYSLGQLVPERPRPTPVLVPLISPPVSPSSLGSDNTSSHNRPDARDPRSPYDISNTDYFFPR
Protocol: as §1, §2

CGRP = CGRP (Homo sapiens, UniProt O60894+Q16602); assay: Receptor binding CGRP; settings: radioligand [125I]-CGRPa, read-out: Ki(nM) Compound 1
Sequence of CGRP (Q16602 23-461): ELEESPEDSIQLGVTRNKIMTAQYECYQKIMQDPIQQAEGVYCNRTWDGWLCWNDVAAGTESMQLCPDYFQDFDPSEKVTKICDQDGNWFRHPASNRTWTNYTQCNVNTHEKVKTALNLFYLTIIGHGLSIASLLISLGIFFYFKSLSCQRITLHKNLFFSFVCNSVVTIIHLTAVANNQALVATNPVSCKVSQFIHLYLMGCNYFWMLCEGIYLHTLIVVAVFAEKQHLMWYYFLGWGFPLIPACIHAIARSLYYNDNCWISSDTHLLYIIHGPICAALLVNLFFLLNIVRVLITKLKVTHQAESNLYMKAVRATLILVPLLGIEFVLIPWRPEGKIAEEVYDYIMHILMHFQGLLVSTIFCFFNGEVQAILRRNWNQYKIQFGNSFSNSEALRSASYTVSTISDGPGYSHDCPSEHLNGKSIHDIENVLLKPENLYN
Sequence of CGRP (O60894 27-148): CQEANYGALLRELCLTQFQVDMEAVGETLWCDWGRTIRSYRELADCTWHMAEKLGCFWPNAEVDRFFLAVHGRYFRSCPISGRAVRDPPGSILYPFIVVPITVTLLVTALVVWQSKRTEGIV
Protocol: as §1, §2

Neurokinin-NK2 = Neurokinin-NK2 (Homo sapiens, UniProt P21452); assay: Receptor binding Neurokinin-NK2; settings: radioligand [125I]-neurokininA, read-out: Ki(nM) Compound 1
Sequence of Neurokinin-NK2 (P21452 whole entry): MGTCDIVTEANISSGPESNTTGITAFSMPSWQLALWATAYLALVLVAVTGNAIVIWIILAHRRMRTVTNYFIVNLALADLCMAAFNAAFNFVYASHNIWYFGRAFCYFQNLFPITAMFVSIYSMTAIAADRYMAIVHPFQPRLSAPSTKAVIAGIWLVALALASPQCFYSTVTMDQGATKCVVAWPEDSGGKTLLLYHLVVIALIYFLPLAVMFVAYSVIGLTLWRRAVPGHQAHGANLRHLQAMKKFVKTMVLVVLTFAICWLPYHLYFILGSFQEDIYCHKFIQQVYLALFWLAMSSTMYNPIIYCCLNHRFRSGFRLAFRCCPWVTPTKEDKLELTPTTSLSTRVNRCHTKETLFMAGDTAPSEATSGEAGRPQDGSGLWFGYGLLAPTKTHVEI
Protocol: as §1, §2

LTD4 = LTD4 (Cavia porcellus, UniProt Q2NNR5); assay: Receptor binding LTD4; settings: radioligand [3H]-LTD4; guinea pig; read-out: Ki(nM) Compound 1
Sequence of LTD4 (Q2NNR5 whole entry): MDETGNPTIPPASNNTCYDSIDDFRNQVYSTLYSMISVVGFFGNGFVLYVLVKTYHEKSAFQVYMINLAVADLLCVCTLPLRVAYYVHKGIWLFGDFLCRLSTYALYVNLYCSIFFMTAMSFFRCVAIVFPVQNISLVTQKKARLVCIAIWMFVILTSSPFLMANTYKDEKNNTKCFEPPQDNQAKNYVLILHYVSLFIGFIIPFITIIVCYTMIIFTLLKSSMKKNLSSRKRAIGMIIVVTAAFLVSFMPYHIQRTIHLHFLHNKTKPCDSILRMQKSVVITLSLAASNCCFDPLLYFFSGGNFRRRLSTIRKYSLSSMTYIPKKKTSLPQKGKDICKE
Protocol: as §1, §2

Adenosine-A3 = Adenosine-A3 (Homo sapiens, UniProt P0DMS8); assay: Receptor binding Adenosine-A3; settings: radioligand [3H]-AB-MECA, read-out: Ki(nM) Compound 1
Sequence of Adenosine-A3 (P0DMS8 whole entry): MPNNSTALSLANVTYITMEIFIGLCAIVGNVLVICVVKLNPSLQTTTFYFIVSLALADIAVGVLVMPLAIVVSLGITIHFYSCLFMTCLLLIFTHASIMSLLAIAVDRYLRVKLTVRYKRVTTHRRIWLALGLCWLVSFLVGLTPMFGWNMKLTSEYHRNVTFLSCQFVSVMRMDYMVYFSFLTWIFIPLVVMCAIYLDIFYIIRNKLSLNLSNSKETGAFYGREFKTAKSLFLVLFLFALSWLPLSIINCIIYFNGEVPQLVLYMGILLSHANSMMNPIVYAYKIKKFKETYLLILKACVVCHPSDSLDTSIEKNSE
Protocol: as §1, §2

[2] = dose of Compound 1 0.3 mg/kg i.p.
[3] = dose of Compound 1 3 mg/kg i.p.
[4] = dose of Compound 1 10 mg/kg i.p.
[5] = dose of Compound 1 15 mg/kg i.p.
[6] = dose of Compound 1 20 mg/kg i.p.

Sequence of δ-opiate (P33533 whole entry): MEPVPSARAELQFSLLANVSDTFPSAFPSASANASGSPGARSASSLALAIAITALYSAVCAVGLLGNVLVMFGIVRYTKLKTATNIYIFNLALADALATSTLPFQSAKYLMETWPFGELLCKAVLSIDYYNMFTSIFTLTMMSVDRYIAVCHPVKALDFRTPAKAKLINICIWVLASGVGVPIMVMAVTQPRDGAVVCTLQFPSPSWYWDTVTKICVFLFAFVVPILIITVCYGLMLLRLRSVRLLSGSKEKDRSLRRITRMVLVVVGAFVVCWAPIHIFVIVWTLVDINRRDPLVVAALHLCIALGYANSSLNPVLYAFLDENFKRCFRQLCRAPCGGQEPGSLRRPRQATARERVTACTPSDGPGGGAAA

Nc1cc2cccc(N3CCNCC3)c2oc1=O [Compound 1, 3-amino-8-(1-piperazinyl)-2H-1-benzopyran-2-one]
Ki (δ-opiate): > 1000 nM
Mean number of turns (rotations contralateral to the direction of a 6-OHDA lesion) ([1]; 0.3 mg/kg p.o.): 20.925
Mean number of turns (rotations contralateral to the direction of a 6-OHDA lesion) ([1]; 0.5 mg/kg p.o.): 22.988
Mean number of turns (rotations contralateral to the direction of a 6-OHDA lesion) ([1]; 0.75 mg/kg p.o.): 106.35*
Mean number of turns (rotations contralateral to the direction of a 6-OHDA lesion) ([1]; 1.0 mg/kg p.o.): 77.1*
minimal effective dose, contralateral rotation ([1]; p.o.): 0.75 mg/kg
Percentage of animal response, Clonic seizures (DBA/2 mice; [2]): 90%
Percentage of animal response, Tonic extension (DBA/2 mice; [2]): 60%
Percentage of animal response, Clonic seizures (DBA/2 mice; [3]): 80%
Percentage of animal response, Tonic extension (DBA/2 mice; [3]): 40%
Percentage of animal response, Clonic seizures (DBA/2 mice; [4]): 40%
Percentage of animal response, Tonic extension (DBA/2 mice; [4]): 0%
Percentage of animal response, Clonic seizures (DBA/2 mice; [5]): 20%
Percentage of animal response, Tonic extension (DBA/2 mice; [5]): 0%
Percentage of animal response, Clonic seizures (DBA/2 mice; [6]): 10%
Percentage of animal response, Tonic extension (DBA/2 mice; [6]): 0%
behavioural changes (DBA/2 mice; i.p., all dosages tested): At none of the dosages tested
Ki (Interleukine-6): > 10000 nM
Ki (CGRP): > 1000 nM
Ki (Neurokinin-NK2): > 1000 nM
Ki (LTD4): > 10000 nM
Ki (Adenosine-A3): > 1000 nM
